Entries after “also recorded” stand apart in the source; their conditions may differ.
How the values were obtained:
Assay type in all cases: cell-based, human
hESCs = assay: QPCR analysis of mesoderm subtype markers in differentiating hESCs; settings: for Expression of the lateral plate marker KDR: in the presence of activin A (10 ng/ml), BMP4 0 to 100 ng/ml
Procedure: Human embryonic stem cells (hESCs) were cultured in chemically defined medium (CDM) with activin A (10 ng/mL) and FGF2 (20 ng/mL) to maintain pluripotency (Vallier et al, 2005).
An efficient 36 h protocol to differentiate hESCs into early mesoderm was named FlyB (F, FGF2 at 20 ng/ml; Ly, LY294002 at 10 μM and B, BMP4 at 10 ng/ml). Differentiation of paraxial mesoderm can be induced by removal of BMP4 and blockage of the PI3K pathway (1.5 day FLyB+3.5 days FLy, where F is FGF2 at 5-25 ng/ml and Ly is LY294002 at 5-10 μM). Differentiation of lateral plate mesoderm can be induced by increasing the levels of BMP4 and removal of Ly (1.5 day FLyB+3.5 days FB, where F is FGF2 at 5-25 ng/ml and B is BMP4 at […]).
(§1) Total RNA was extracted with RNeasy Mini kit according to the manufacturer's instructions (QIAGEN). One microgram of RNA was reverse-transcribed with Fermentas Maxima First Strand cDNA Synthesis Kit. Quantitative polymerase chain reaction (QPCR) mixtures were prepared as described (Applied Biosystems SYBR Green PCR Master Mix). QPCR reactions were performed by Applied Biosystems 7500 Fast Real-Time PCR System with technical duplicates and normalized to Porphobilinogen Deaminase (PBGD) in the same run. Error bars on all QPCR graphs represent standard error of mean from three independent biological replicates.
The protocol used is shown schematically in FIG. 1A, depicting the growth factors used and the duration of the treatment. For the first 36 hours, growth factors used were FLyB10 [FGF2 (20 ng/mL), BMP4 (10 ng/mL) and LY294002 (10 μM)] to induce primitive streak). The subsequent 3.5 days of differentiation specifies mesoderm subtypes. FLy [FGF2 (20 ng/mL) and LY294002 (10 μM)] for somitic mesoderm; FB50 [FGF2 (20 ng/mL) and BMP4 (50 ng/mL)] for lateral mesoderm.
QPCR analysis was performed for Brachyury, MEOX1 and FLK1 in hESCs grown according to the protocol depicted in FIG. 1A and harvested at day 5. The BMP4 gradient tested ranged from 0 ng/mL (Nog) to 100 ng/mL (B100). The bars in FIG. 2 represent the absence or presence of activin A (A) added at 10 ng/ml respectively. […] Therefore, absence of activin A promoted mesoderm formation.
We then evaluated the effect of 10 μM LY294002 (Ly) on mesoderm subtype specification. QPCR analysis of LMO2, CD31, PECAM1, NKX2.5, ISL1, MEOX1, TBX6, TCF15 and PAX1 was performed in hESCs grown for 36 h in FLyB10 and then for 3.5 additional days in F or FB50, with (RH bars) or without (LH bars) […]. […] On the other hand, the presence of Ly promoted the expressions of somitic markers—MEOX1 and TBX6. […] Again, the presence of 50 ng/ml BMP4 (B50) inhibited the expression of all paraxial markers and promoted the expression of lateral plate markers.

derived SMCs [1] = assay: Calcium flux measurement with Fluo-4; settings: carbachol 100 μM
Procedure: (§2) On culture dishes, SMCs were loaded with the calcium-sensitive fluorophore, Fluo-4 AM (2.5 μM; Molecular Probes). Cells were typsinised into single-cell suspension for calcium flux measurement using the CyAn ADP flow cytometer (Packman Coulter). Contraction was induced by treating the cells with carbachol (100 μM). Fluo-4 was excited by the 488 nm laser and the fluorescence emission was measured by the FL1 channel. Cells were analysed just before addition of carbachol, 1 minute and 3 minutes after addition. On the other hand, contraction images of adherent SMCs were acquired by an inverted microscope (Olympus) before and after 10 minutes of carbachol treatment.
Changes of calcium signalling in cells are indicative of their contractile properties in response to carbachol, a potent vasoconstrictor. The origin-specific SMCs were loaded with fluo-4, a calcium-sensitive dye, prior to the addition of carbachol (FIG. 13) and fluorescent emission from the fluo-4 measured over time (T) after the addition of carbachol to the origin-specific SMCs. Hela cells were used as negative control.
To assess SMC contractile potential, we initially performed immunostaining for vinculin and phalloidin staining for actin filaments, Well-developed focal adhesion complexes were detected in all three SMC subtypes. The cells were then preloaded with a calcium-sensitive dye, Fluo-4. Carbachol (100 μM) stimulated an increase in Fluo-4 fluorescence intensity in the derived SMCs within 1 min of treatment (FIG. 14), indicating increased intracellular calcium flux. After 2 min of treatment, Fluo-4 intensity decreased, approaching original basal levels by 5 min.

derived SMCs [2] = assay: Contraction study; settings: for Percentage of all derived SMCs that contracted: upon carbachol or angiotensin II treatment
Procedure: as §2
Over 50% and 20% of all derived SMCs contracted upon carbachol and angiotensin II treatments, respectively.

[3] = tested on: hPSC-derived SMCs and rat aortic SMCs; assay: MMP and TIMP expression after IL-1β treatment (qRT-PCR); settings: IL-1β 10 ng/ml
Procedure: as §1
Only NE-SMCs proliferated in response to TGF-β1 (FIGS. 24, 25). TGF-β1 may have enhanced cell proliferation by autocrine production of TGF-β2 and PDGFA. We investigated whether TGF-β1 stimulated greater auto-induction of TGF-β2 and PDGFA in SMCs of a neuroectoderm origin. […] Correspondingly, elevated TGFB2 and PDGFA protein levels were found in NE-SMC lysates after TGF-β1 treatment (FIG. 22). Taken together, the data on requirement for MKL2 and their unique proliferative and secretory responses validate the hypothesis that our different SMC subtypes are analogous to the distinct lineage-dependent SMC populations documented in vivo. […]

NE-SMC = assay: Proliferation response by MTT assay; settings: over 3 d; Ang II 1 μM, TGF-β1 5 ng/ml, serum 10%
Text: (§3) To confirm that we had generated origin-specific SMC subtypes, we used cytokines known to induce unique responses in aortic SMCs of distinct origins. Angiotensin II (Ang II) promotes medial hyperplasia in the ascending aorta (neuroectoderm derivative) but not the descending aorta (mesoderm derivative), TGF-β1 also encourages greater cell proliferation in SMCs of neuroectoderm origin compared to those of mesodermal origin. […] Cell cycle analysis confirmed that Ang II, TGF-β1 or serum each increased the proportion of NE-SMCs in S and G2-M phases compared to vehicle control after 24 h (FIGS. 25A and 25B).

LM-SMC = assay: Proliferation response by MTT assay; settings: over 3 d; Ang II 1 μM, TGF-β1 5 ng/ml, serum 10%
Text: as §3

PM-SMC = assay: Proliferation response by MTT assay; settings: over 3 d; Ang II 1 μM, TGF-β1 5 ng/ml, serum 10%
Text: as §3

NE-SMCs [4] = assay: Auto-induction of TGF-β2 and PDGFA (qRT-PCR, western blot)
Procedure: as §1
To obtain protein extracts, cells were washed twice with ice-cold PBS. Ice-cold RIPA buffer was then added to the cells. Cells were scraped off the culture dishes and transferred into a centrifuge tube. Suspension was agitated by an orbital shaker for 15 minutes to lyse the cells at 4° C. Lysate was centrifuged at 14,000 g in a precooled centrifuge for 15 minutes and the supernatant was kept frozen at −80. Protein concentrations were determined using Thermo Scientific BCA Protein Assay Kit. 20 μg total protein was separated by SDS-PAGE and on stacking gel (30% acrylamide, 1M Tris, 10% SDS, 10% APS, TEMED) then transferred to a nitrocellulose membrane. […]

NE-SMCs [5] = assay: Cell cycle analysis; settings: after 24 h, compared to vehicle control
Text: as §3

[6] = 50 ng/ml BMP4 (B50), 36 h FLyB10 then 3.5 days

O=c1cc(N2CCOCC2)oc2c(-c3ccccc3)cccc12 [LY294002, 2-morpholin-4-yl-8-phenylchromen-4-one, reference compound]
Expression of lateral plate markers LMO2, PECAM1, NKX2-5, ISL1 (hESCs; 10 μM LY294002 in F or FB50, compared to no LY294002): had no effect or inhibited; also recorded: significantly downregulated
Expression of paraxial markers MEOX1, TBX6, TCF15, PAX1 (hESCs; 10 μM LY294002 in the presence of 20 ng/ml FGF2 (F) alone, versus no LY294002): promote paraxial mesoderm patterning; also recorded: significantly promoted

C[N+](C)(C)CCOC(N)=O [carbachol]
Fluo-4 fluorescence intensity (intracellular calcium flux) (derived SMCs [1]): transient increase
Time to increase in Fluo-4 fluorescence intensity (derived SMCs [1]): ≤ 1 min
Fluo-4 fluorescence intensity (intracellular calcium flux) (derived SMCs [1]; listed as Carbachol): increase
Change of cell surface area in contracting cells (derived SMCs [2]; 10 min of carbachol treatment, n=20): 10-20%
Percentage of all derived SMCs that contracted (derived SMCs [2]): Over 50%

IL-1β: an atherogenic cytokine
Induction of Mmp9 relative to control in rat SMCs versus hPSC-derived SMCs ([3]; 6 h): ~100 fold
MMP9 and TIMP1 expression levels ([3]; SMC subtypes and rat SMCs of distinct origins): differentially activated

TGF-β1: homodimeric polypeptide which regulates proliferation and differentiation
Proliferation (NE-SMC): proliferated
Proliferation (LM-SMC): did not
Proliferation (PM-SMC): did not
TGFB2 and PDGFA expression (NE-SMCs [4]; 10 h of TGF-β1 (5 ng/ml), compared with vehicle control, only in NE-SMCs): significantly upregulated
TGFB2 and PDGFA protein levels in lysates (NE-SMCs [4]; after TGF-β1 treatment, western blot): elevated
Proportion of cells in S and G2-M phases (NE-SMCs [5]): increased

angiotensin II: vasoconstrictor; promotes medial hyperplasia in the ascending aorta (DRVYIHPF; Angiotensin-2; UniProt P01019 25-32, looked up) [reference compound]
Proliferation (NE-SMC): proliferated
Proliferation (LM-SMC): did not
Proliferation (PM-SMC): did not
Percentage of all derived SMCs that contracted (derived SMCs [2]): > 20%
Proportion of cells in S and G2-M phases (NE-SMCs [5]): increased

B1: activin A: dimeric polypeptide stimulating the Activin/Nodal pathway (protein, UniProt P08476 311-426, looked up)
Inhibin beta A chain: GLECDGKVNICCKKQFFVSFKDIGWNDWIIAPSGYHANYCEGECPSHIAGTSGSSLSFHSTVINHYRMRGHSPFANLKSCCVPTKLRPMSMLYYDDGQNIIKKDIQNMIVEECGCS
modifications: Inhibin beta A chain
Expression of Brachyury (T), MEOX1 and FLK1 (hESCs; absence versus presence of activin A at 10 ng/ml, day 5): upregulated
Requirement for mesoderm patterning (hESCs; hESCs harvested at day 5): not required

B2: BMP4: Bone Morphogenic Protein 4, TGFβ ligand stimulating SMAD1, SMAD5 and SMAD9 signalling (protein, UniProt P12644 293-408, looked up)
Bone morphogenetic protein 4: SPKHHSQRARKKNKNCRRHSLYVDFSDVGWNDWIVAPPGYQAFYCHGDCPFPLADHLNSTNHAIVQTLVNSVNSSIPKACCVPTELSAISMLYLDEYDKVVLKNYQEMVVEGCGCR
Expression of all paraxial markers (hESCs; [6]): inhibited
Expression of lateral plate markers (hESCs; [6]): promoted
Expression of FLK1 (hESCs; hESCs harvested at day 5, BMP4 0 to 100 ng/mL): increased
Expression of the lateral plate marker KDR (hESCs; day 5): promote the expression

B3: Noggin: a BMP antagonist (protein, UniProt Q13253 28-232, looked up)
Noggin: QHYLHIRPAPSDNLPLVDLIEHPDPIFDPKEKDLNETLLRSLLGGHYDPGFMATSPPEDRPGGGGGAAGGAEDLAELDQLLRQRPSGAMPSEIKGLEFSEGLAQGKKQRLSKKLRRKLQMWLWSQTFCPVLYAWNDLGSRFWPRYVKVGSCFSKRSCSVPEGMVCKPSKSVHLTVLRWRCQRRGGQRCGWIPIQYPIISECKCSC
Expression of the lateral plate marker KDR (hESCs; day 5): same effect as B0
